Molecular target: T1, glucocerebrosidase (Gcase) (Homo sapiens, UniProt P04062)
T1 construct: micellar solution containing 10 nM GCase and 100 nM saposin C
T1 sequence (P04062 40-536): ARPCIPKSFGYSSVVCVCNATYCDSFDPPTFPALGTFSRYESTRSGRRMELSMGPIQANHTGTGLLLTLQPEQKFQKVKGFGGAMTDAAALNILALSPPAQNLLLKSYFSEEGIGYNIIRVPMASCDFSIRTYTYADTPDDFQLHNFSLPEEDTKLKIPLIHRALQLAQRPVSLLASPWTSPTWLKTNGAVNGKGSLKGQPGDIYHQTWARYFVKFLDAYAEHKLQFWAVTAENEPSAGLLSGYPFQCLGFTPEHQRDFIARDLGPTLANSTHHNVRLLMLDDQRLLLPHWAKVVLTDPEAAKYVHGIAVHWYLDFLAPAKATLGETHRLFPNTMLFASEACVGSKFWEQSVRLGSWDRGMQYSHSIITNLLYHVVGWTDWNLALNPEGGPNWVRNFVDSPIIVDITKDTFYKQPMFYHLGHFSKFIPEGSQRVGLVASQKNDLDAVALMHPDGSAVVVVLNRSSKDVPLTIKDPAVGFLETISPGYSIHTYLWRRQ
Assay: Glucocerebrosidase (Gcase) activation assay with 4-methylumbelliferyl-beta-D-glucopyranoside substrate, saposin C and phosphatidylserine/triton micelles, fluorescence readout
Assay type: biochemical
Method in brief: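 Readout is endpoint fluorescence (ex 365, em 440 nm) after glycine pH 12.5 stop of a 15-min room-temperature reaction. Enzyme mix: GCase 10 nM plus saposin C 100 nM in 0.37 mol % PS/0.32 mM triton micelles, pH 4.7, compound pre-incubated 30 min; substrate solution 2 mM before 1:1 mixing. Tested at 1.0/0.1 μM, then 3-fold, 8-point series up to 5 μM.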

SMILES | Percent Gcase Activation, 0.1 μM Test Compound | Percent Gcase Activation, 1 μM Test Compound
Cc1cc(-c2ccc(C#N)nc2)nc2c(C(=O)NC(C)(C)C3CC3)cnn12 [III-370] | * (less than 10% Gcase activation) | +++ (Gcase activation greater than 60%)
Cc1cc(-c2cccnc2C#N)nc2c(C(=O)NC(C)(C)C3CC3)cnn12 [III-371] | * (less than 10% Gcase activation) | +++ (Gcase activation greater than 60%)
Cc1ccc(-c2cc(C)n3ncc(C(=O)N[C@H](C4CC4)C(F)(F)F)c3n2)c(F)n1 [III-372] | *** (greater than 20% Gcase activation) | +++ (Gcase activation greater than 60%)
Cc1ccc(-c2cc(C)n3ncc(C(=O)N[C@@H](C4CC4)C(F)(F)F)c3n2)c(F)n1 [III-373] | *** (greater than 20% Gcase activation) | +++ (Gcase activation greater than 60%)
Cc1cnc(F)c(-c2cc(C)n3ncc(C(=O)N[C@H](C4CC4)C(F)(F)F)c3n2)c1 [III-374] | *** (greater than 20% Gcase activation) | +++ (Gcase activation greater than 60%)
Cc1cnc(F)c(-c2cc(C)n3ncc(C(=O)N[C@@H](C4CC4)C(F)(F)F)c3n2)c1 [III-375] | *** (greater than 20% Gcase activation) | +++ (Gcase activation greater than 60%)
Cc1ncccc1-c1cc(C)n2ncc(C(=O)N[C@H](C3CC3)C(F)(F)F)c2n1 [III-376] | * (less than 10% Gcase activation) | + (less than 30% Gcase activation)
Cc1ncccc1-c1cc(C)n2ncc(C(=O)N[C@@H](C3CC3)C(F)(F)F)c2n1 [III-377] | * (less than 10% Gcase activation) | + (less than 30% Gcase activation)
Cc1ncc(F)cc1-c1cc(C)n2ncc(C(=O)N[C@H](C3CC3)C(F)(F)F)c2n1 [III-378] | ** (Gcase activation in the range of 10% up to 20%) | +++ (Gcase activation greater than 60%)
Cc1ncc(F)cc1-c1cc(C)n2ncc(C(=O)N[C@@H](C3CC3)C(F)(F)F)c2n1 [III-379] | ** (Gcase activation in the range of 10% up to 20%) | +++ (Gcase activation greater than 60%)
Cc1ncc(-c2cc(C)n3ncc(C(=O)N[C@H](C4CC4)C(F)(F)F)c3n2)cc1F [III-380] | *** (greater than 20% Gcase activation) | +++ (Gcase activation greater than 60%)
Cc1ncc(-c2cc(C)n3ncc(C(=O)N[C@@H](C4CC4)C(F)(F)F)c3n2)cc1F [III-381] | *** (greater than 20% Gcase activation) | +++ (Gcase activation greater than 60%)
Cc1cccc(-c2cc(C)n3ncc(C(=O)N[C@@H](C4CC4)C(F)(F)F)c3n2)n1 [III-382] | *** (greater than 20% Gcase activation) | +++ (Gcase activation greater than 60%)
C#Cc1cncc(-c2cc(C)n3ncc(C(=O)N[C@@H](C4CC4)C(F)(F)F)c3n2)c1 [III-383] | *** (greater than 20% Gcase activation) | +++ (Gcase activation greater than 60%)
COCOc1cccc(-c2cc(C)n3ncc(C(=O)N[C@@H](C4CC4)C(F)(F)F)c3n2)n1 [III-384] | ** (Gcase activation in the range of 10% up to 20%) | +++ (Gcase activation greater than 60%)
Cc1nsc(C)c1-c1cc(C)n2ncc(C(=O)N[C@H](C3CC3)C(F)(F)F)c2n1 [III-385] | * (less than 10% Gcase activation) | + (less than 30% Gcase activation)
Cc1nsc(C)c1-c1cc(C)n2ncc(C(=O)N[C@@H](C3CC3)C(F)(F)F)c2n1 [III-386] | * (less than 10% Gcase activation) | + (less than 30% Gcase activation)

SMILES | Percent Gcase Activation, 0.1 μM Test Compound | Percent Gcase Activation, 1 μM Test Compound
Cc1sncc1-c1cc(C)n2ncc(C(=O)N[C@H](C3CC3)C(F)(F)F)c2n1 [III-387] | *** (greater than 20% Gcase activation) | +++ (Gcase activation greater than 60%)
Cc1sncc1-c1cc(C)n2ncc(C(=O)N[C@@H](C3CC3)C(F)(F)F)c2n1 [III-388] | *** (greater than 20% Gcase activation) | +++ (Gcase activation greater than 60%)
Cc1nscc1-c1cc(C)n2ncc(C(=O)N[C@H](C3CC3)C(F)(F)F)c2n1 [III-389] | *** (greater than 20% Gcase activation) | +++ (Gcase activation greater than 60%)
Cc1nscc1-c1cc(C)n2ncc(C(=O)N[C@@H](C3CC3)C(F)(F)F)c2n1 [III-390] | *** (greater than 20% Gcase activation) | +++ (Gcase activation greater than 60%)
Cc1cc(-c2nnc(C(C)C)o2)nc2c(C(=O)N[C@H](C3CC3)C(F)(F)F)cnn12 [III-391] | ** (Gcase activation in the range of 10% up to 20%) | +++ (Gcase activation greater than 60%)
Cc1cc(-c2nnc(C(C)C)o2)nc2c(C(=O)N[C@@H](C3CC3)C(F)(F)F)cnn12 [III-392] | ** (Gcase activation in the range of 10% up to 20%) | +++ (Gcase activation greater than 60%)
Cc1cc(-c2noc(C(C)C)n2)nc2c(C(=O)N[C@H](C3CC3)C(F)(F)F)cnn12 [III-393] | *** (greater than 20% Gcase activation) | +++ (Gcase activation greater than 60%)
Cc1cc(-c2noc(C(C)C)n2)nc2c(C(=O)N[C@@H](C3CC3)C(F)(F)F)cnn12 [III-394] | *** (greater than 20% Gcase activation) | +++ (Gcase activation greater than 60%)
Cc1cc(C#N)nc2c(C(=O)N[C@@H](C3CC3)C(F)(F)F)cnn12 [III-395] | * (less than 10% Gcase activation) | ++ (Gcase activation in the range of 30% up to 60%)
Cc1cc(-c2cc(F)ccc2C#N)nc2c(C(=O)N[C@@H](C)C3CC3)cnn12 [III-396] | *** (greater than 20% Gcase activation) | +++ (Gcase activation greater than 60%)
Cc1cc(-c2c(F)cccc2C#N)nc2c(C(=O)N[C@@H](C)C3CC3)cnn12 [III-397] | ** (Gcase activation in the range of 10% up to 20%) | +++ (Gcase activation greater than 60%)
Cc1cc(-c2cccc(F)c2C#N)nc2c(C(=O)N[C@@H](C)C3CC3)cnn12 [III-398] | *** (greater than 20% Gcase activation) | +++ (Gcase activation greater than 60%)
Cc1cc(-c2cccc(F)c2C#N)nc2c(C(=O)N[C@@H](C)C(F)(F)F)cnn12 [III-399] | *** (greater than 20% Gcase activation) | +++ (Gcase activation greater than 60%)
Cc1cc(-c2c(F)cccc2C#N)nc2c(C(=O)N[C@@H](C)C(F)(F)F)cnn12 [III-400] | ** (Gcase activation in the range of 10% up to 20%) | +++ (Gcase activation greater than 60%)
Cc1cc(-c2noc(C(C)C)n2)nc2c(C(=O)N[C@@H](C)C(F)(F)F)cnn12 [III-401] | *** (greater than 20% Gcase activation) | +++ (Gcase activation greater than 60%)
Cc1cc(-c2noc(C(C)C)n2)nc2c(C(=O)N[C@@H](C)C3CC3)cnn12 [III-402] | *** (greater than 20% Gcase activation) | +++ (Gcase activation greater than 60%)

Reference: US10934298B2, “Substituted pyrazolo[1,5-a]pyrimidines for the treatment of medical disorders” (BIAL—BioTech Investments, Inc., priority 2016, dated 2021)
